Measurements reported in patent US9358252B2, “Polysaccharide compositions and methods of use for the treatment and prevention of disorders associated with progenitor cell mobilization” (MOMENTA PHARMACEUTICALS, INC., priority 2007, dated 2016).

How the values were obtained:
[1] = system: C170HM2 human colorectal tumor cells; assay: C170HM2 colon cancer metastasis to the liver model; format: in vivo, MF1 nude (nu/nu) athymic mice; conditions: 25 mg/kg i.v. cycled on days 1, 3, 5, 7; liver tumors day 35
Method: Liver metastasis was initiated by intraperitoneal injection of C170HM2 human colorectal tumor cells into male MF1 nude (nu/nu) athymic mice. 5FU/leucovorin was used as a positive control.
C170HM2 cells were maintained in vitro in RPMI culture medium (Sigma) containing 10% (v/v) heat inactivated fetal bovine serum and 2 mM L-glutamine at 37° C. in 5% CO2 and humidified conditions. Cells from sub-confluent monolayers were harvested with 0.025% EDTA, washed in culture medium and re-suspended in sterile phosphate buffered saline, pH 7.4 (PBS) for in vivo administration. 1.5×10^6 cells in a volume of 1 ml were injected intraperitoneally into 65 mice, and the mice were allocated into treatment groups as below.
Treatment was initiated on day 1 following cell injection and continued until day 35 or until the clinical condition of the animal required termination. Groups 5 and 6 missed one dose on day 5. No adverse affects of the test compounds in mice bearing the tumors were observed.
The study was terminated on day 35, and the tumors in the liver were excised and weighed. The numbers of lung nodules are also counted.

[2] = system: 4T1 cells; assay: 4T1 breast cancer metastasis to the lung model, daily treatment; format: in vivo, BALB/c mice; conditions: Cisplatin weekly from day 5
Method: Female BALB/c mice 8 weeks of age (WOA) were injected with 8×10^4 4T1 cell intra mammary fat pad. Daily treatment with saline or MONC402 with or without weekly treatment of cisplatin started on day 5. Primary tumors were removed on day 9 and weighed.

[3] = system: 4T1 cells; assay: Second 4T1 experiment, osmotic pump delivery; format: in vivo, BALB/c mice; conditions: MONC402 20 mg/kg/day osmotic pump; Cisplatin 1.25 mg/kg weekly; day 32
Method: FIG. 2 is a bar graph showing the effect of a polysaccharide preparation described herein in a 4T1 therapeutic model of breast cancer metastasis to the lung. Lung tumor burden (lung weight-normal lung weight) was determined on day 32 for female BALB/c mice (8 weeks old) challenged with intra-mammary fat pad injection of 8×10^4 4T1 cells and treated as indicated starting on day 4. In a second 4T1 experiment, female BALB/c mice 8 WOA were injected with 8×10^4 4T1 cells intra mammary fat pad. Continuous osmotic pump delivery of saline or MONC 402 with weekly treatment of saline or Cisplatin started on day 4. Primary tumors were removed on day 9. […] The experiment terminated on day 32 and different samples were taken. 6 mice were either found dead or were terminated early due to worsened overall condition. 4T1 lung metastases were determined by lung weight, lung tumor nodule quantification including nodule number, size and calculated tumor volume, as well as histological quantification.

[4] = system: endothelial progenitor cells (EPC); assay: EPC mobilization in normal mice, single MONC402 dose; format: in vivo; conditions: G-CSF 200 μg/kg 3 days; docetaxel i.p. 40 mg/kg; cisplatin i.p. 6 mg/kg; 24 h
Method: In one experiment, normal mice were treated with G-CSF (s.c., 3 consecutive days), docetaxel or cisplatin (one i.p. dose) with or without simultaneous MONC402 treatment (one s.c. dose). EPC mobilization was monitored 24 h later. Mice (8 mice/group) were dosed s.c. with Saline or MONC402 (40 mg/kg) (or DC101 at 40 mg/kg for control with docetaxel). About 30 min later, mice were given docetaxel (i.p., 40 mg/kg), cisplatin (i.p., 6 mg/kg), or saline control. As a positive control, 2 groups of mice were also dosed with G-CSF […]. (200 μg/kg) for 3 days, either alone or in combination with a single dose of MONC402 (s.c. at 40 mg/kg) on the last day. 24 h later, the mice were euthanized, and 0.5-0.8 mL of blood taken by cardiac puncture:
About 300 μL of whole blood was transferred directly into 14 mL of lysis buffer for flow cytometry of EPC. The remaining 300-600 μL were processed for serum (SDF-1α). For flow cytometry, lysed cells were washed and blocked, then stained with CD13-FITC, CD117-PE, 7-AAD, VEGFR2-APC, and CD45-PE/Cy7. A total of 50,000 cells were acquired per sample in the PBMNC gate.

[5] = system: endothelial progenitor cells (EPC); assay: EPC mobilization in mice, second experiment (daily MONC402 with G-CSF); format: in vivo; conditions: G-CSF 200 μg/kg s.c. 5 consecutive days; docetaxel i.p. 40 mg/kg
Method: In a second experiment, it was tested if daily dosing for 5 days with MONC402 would generate a stronger inhibitory effect on EPC mobilization caused by treatment with a taxane.
Mice (10 mice/group) were dosed s.c. with Saline or MONC402 (40 mg/kg), or DC101 (40 mg/kg, as a positive inhibition control with docetaxel). About 30 min later, mice were given docetaxel (i.p., 40 mg/kg) or saline control. As a positive control, 2 groups of mice were also dosed with G-CSF (200 μg/kg) s.c. for 5 consecutive days±daily MONC402. 24 h later, the mice were euthanized, and 500-800 μL of blood taken by cardiac puncture. 150 μL were transferred into 5 mL of lysis buffer for flow cytometric analysis of EPC. The remaining 350-500 μL were processed for serum (SDF-1α). For flow cytometry, cells were washed and blocked and then stained with CD13-FITC, CD117-PE, 7-AAD, VEGFR2-APC, and CD45-PE/Cy7. A total of 50,000 cells were acquired per sample in the PBMNC gate.

[6] = system: endothelial progenitor cells (EPC); assay: Docetaxel induced EPC mobilization in 4T1 tumor bearing mice, MONC402 via osmotic pump; format: in vivo; conditions: Docetaxel 40 mg/kg i.p. Day 6; MONC402 osmotic pump 40 mg/kg/day monotherapy
Method: A third experiment was conducted to evaluate the effect of MONC402 on EPC mobilization in response to treatment with docetaxel in 4T1 tumor bearing mice.
4T1 tumors were implanted on Day 0 at 1×10^5 cells/mouse into the 4th mammary fat pad. Pumps with Saline or MONC402 were implanted on Day 0, immediately after tumor cell injections. Mice were randomized to the following groups: • 1. Saline Control, n=8 • 2. Docetaxel, 40 mg/kg, Day 6, n=8 • 3. M402, pump, 40 mg/kg/day, Day 0, n=8 • 4. Docetaxel, 40 mg/kg, Day 6+M402, pump, 40 mg/kg/day, Day 0, n=8
Docetaxel or Saline was administered i.p. on Day 6 in the AM. Four h later, mice were bled by submandibular plexus for EPC profiling and soluble factor analysis. Primary tumors were removed on Day 9 for histological analyses. Blood was also collected for soluble factor analyses (72 h after docetaxel dosing). Serum samples were analyzed using a 19-plex Luminex kit. In addition, samples were also tested for SDF-1α levels by ELISA.

5FU/leucovorin
Mean tumor area (% of vehicle) [1]: 15.7 % of vehicle
Mean tumor area (mm^2) [1]: 13.12 mm^2
Mean tumor weight [1]: 0.037 g
Mean tumor weight (% of vehicle) [1]: 11.94 % of vehicle

N.N.[Cl][Pt][Cl] [Cisplatin, cisplatin]
Average lung tumor size [2]: 1.41
Average tumor size [2]: 1.36
Lung tumor nodule #/animal [2]: 5.6 ± 4.4
Total tumor nodule [2]: 89
Total tumor volume [2]: 134.13
4T1 lung metastasis [3]: significant anti-tumor efficacy
EPC mobilization compared to Saline control [4]: did not show this effect

CC(=O)O[C@@]12CO[C@@H]1C[C@H](O)[C@@]1(C)C(=O)[C@H](O)C3=C(C)[C@@H](OC(=O)[C@H](O)[C@@H](NC(=O)OC(C)(C)C)c4ccccc4)C[C@@](O)([C@@H](OC(=O)c4ccccc4)[C@H]21)C3(C)C [Docetaxel, docetaxel]
EPC mobilization compared to Saline control [4]: significant increase
EPC mobilization [5]: significant increase
EPC in the blood at 4 h [6]: significant increase

B1: granulocyte colony stimulating factor (protein, UniProt P09919 31-207, looked up)
Granulocyte …: TPLGPASSLPQSFLLKCLEQVRKIQGDGAALQEKLVSECATYKLCHPEELVLLGHSLGIPWAPLSSCPSQALQLAGCLSQLHSGLFLYQGLLQALEGISPELGPTLDTLQLDVADFATTIWQQMEELGMAPALQPTQGAMPAFASAFQRRAGGVLVASHLQSFLEVSYRVLRHLAQP
notes: growth factor used as positive control for EPC and MDSC mobilization
EPC mobilization compared to Saline control [4]: significant increase
EPC mobilization [5]: significant increase
